Source: patent US20100087547A1, “Use of a Blood-Flow Decrease Preventing Agent in Conjunction With Insufflating Gas” (priority 2001, published 2010)

Assays:
blood-flow in liver = assay: Liver blood-flow by laser Doppler flow method in anesthetized pigs during and after carbon dioxide insufflation (Example I); assay type: in vivo; conditions: adult pigs
Protocol: Ten adult pigs were anesthetized at time zero using halothane anesthetic. A small cut was made in the abdomen to allow access inside the peritoneum. In the case of one group of five pigs, denoted group A, an insufflating needle was inserted, and starting at time 1 hour and 48 minutes, an insufflating gas consisting of carbon dioxide was delivered into the abdominal cavity to standard operating pressure (of 15 mm Hg) and the insufflating gas was maintained in the abdominal cavity for 1 hour whereupon the insufflating gas was removed by suction. In the case of another group of five pigs, denoted group B, an insufflating needle was inserted, and starting at time 1 hour and 35 minutes, an insufflating gas consisting of carbon dioxide and 100 ppm ethyl nitrite was delivered to the abdominal cavity to standard operating pressure and the insufflating gas was maintained in the abdominal cavity for about 1⅕ hour whereupon the insufflating gas was removed by suction. In both cases, blood-flow in liver was monitored by a laser Doppler flow method (a standard method where […] are projected at flowing blood and bounce back) whereby blood-flow is determined starting at time 5 minutes after time zero in the case of group A, and starting at about time 20 minutes after time zero in the case of group B and continuing until 2 hours after insufflating gas was removed. In FIGS. 1 and 2, the Doppler Flow Units are arbitrary units. In FIG. 3, the term “Relative Flow” means relative blood-flow in liver compared to baseline. […] FIG. 1 illustrates that carbon dioxide pneumoperitoneum produces a decrease in blood-flow to the liver, which was sustained even after the procedure was completed.

fetal PO2 = assay: Fetal PO2 during laparoscopic evaluation of a pregnant female (Example II); assay type: in vivo, human; conditions: 32 weeks pregnant female, 100 ppm added to carbon dioxide insufflating gas; fetal PO2 before addition 7 mmHg, electrode on the head
Protocol: A person, 32 weeks pregnant, undergoes laparoscopic evaluation for right lower quadrant pain. Thirty minutes into the procedure, fetal PO2, measured by an electrode placed on the head, is 7 mmHg. 100 ppm ethyl nitrite is added to the carbon dioxide insufflating gas, and the fetal PO2 increases to 25 mm Hg.

renal perfusion = assay: Laparoscopy in a person with renal artery stenosis, renal perfusion (Example IV); assay type: in vivo, human; conditions: 100 ppm added to insufflating gas
Text: A person with renal artery stenosis undergoes laparoscopy appendectomy and diagnostic evaluation of a renal mass.

[1] = system: abdominal pain suggestive of intestinal ischemia; assay: Laparoscopic cholecystectomy, abdominal pain suggestive of intestinal ischemia (Example III); assay type: in vivo, human; conditions: person, 100 ppm added to the insufflating gas one hour into the procedure
Text: A person undergoes laparoscopic cholecystectomy.

[2] = system: blood pressure, pulmonary and renal functions; assay: Laparoscopic appendectomy, agent nebulized into the abdominal cavity (Example V); assay type: in vivo, human; conditions: person, 3 cc of 100 micromolar nebulized into the abdominal cavity
Text: A person undergoes laparoscopic appendectomy. Because of concerns of impaired renal function, pulmonary function and hypertension, nitroglycerin (3 cc of 100 micromolar) is nebulized into the abdominal cavity. Blood pressure increases are prevented and pulmonary and renal functions are kept stable.

| SMILES | more blood-flow in liver than with carbon dioxide only, 2 hours post-insufflation (FIG. 3) (blood-flow in liver; 100 ppm ethyl nitrite in carbon dioxide, 2 hours after insufflating gas is removed) | more blood-flow in liver than with carbon dioxide only, during insufflation (FIG. 3) (blood-flow in liver; 100 ppm ethyl nitrite in carbon dioxide, average values while insufflating gas is present) | effect on carbon dioxide induced decline in liver perfusion (FIG. 2) (blood-flow in liver; group B, carbon dioxide with 100 ppm ethyl nitrite, 15 mm Hg, laser Doppler flow) | fetal PO2 after addition of agent (fetal PO2) | decrease in blood-flow (renal perfusion) (renal perfusion) | abdominal pain [1] | blood pressure increases [2] | pulmonary function [2] | renal function [2] |
| --- | --- | --- | --- | --- | --- | --- | --- | --- | --- |
| CCON=O [ethyl nitrite] | about 40% | about 70% | protects against carbon dioxide induced decline in liver perfusion | 25 mm Hg | protects against decrease in blood-flow | resolution of abdominal pain |  |  |  |
| O=[N+]([O-])OCC(CO[N+](=O)[O-])O[N+](=O)[O-] [nitroglycerin] |  |  |  |  |  |  | prevented | kept stable | kept stable |
